{"source": "patent US10947213B1", "about": "(Merck Patent GmbH, priority 2015, dated 2021)", "note": "Where a name gives a salt, the structure may show the parent alone."}
{"molecular_target": "T1, TLR7/NFKb HEK cells (Homo sapiens, UniProt Q9NYK1)", "T1 construct": "expressed in transfected cells; host or cells: HEK cells (TLR7/NFKb reporter line)", "T1 sequence (Q9NYK1 27-1049)": "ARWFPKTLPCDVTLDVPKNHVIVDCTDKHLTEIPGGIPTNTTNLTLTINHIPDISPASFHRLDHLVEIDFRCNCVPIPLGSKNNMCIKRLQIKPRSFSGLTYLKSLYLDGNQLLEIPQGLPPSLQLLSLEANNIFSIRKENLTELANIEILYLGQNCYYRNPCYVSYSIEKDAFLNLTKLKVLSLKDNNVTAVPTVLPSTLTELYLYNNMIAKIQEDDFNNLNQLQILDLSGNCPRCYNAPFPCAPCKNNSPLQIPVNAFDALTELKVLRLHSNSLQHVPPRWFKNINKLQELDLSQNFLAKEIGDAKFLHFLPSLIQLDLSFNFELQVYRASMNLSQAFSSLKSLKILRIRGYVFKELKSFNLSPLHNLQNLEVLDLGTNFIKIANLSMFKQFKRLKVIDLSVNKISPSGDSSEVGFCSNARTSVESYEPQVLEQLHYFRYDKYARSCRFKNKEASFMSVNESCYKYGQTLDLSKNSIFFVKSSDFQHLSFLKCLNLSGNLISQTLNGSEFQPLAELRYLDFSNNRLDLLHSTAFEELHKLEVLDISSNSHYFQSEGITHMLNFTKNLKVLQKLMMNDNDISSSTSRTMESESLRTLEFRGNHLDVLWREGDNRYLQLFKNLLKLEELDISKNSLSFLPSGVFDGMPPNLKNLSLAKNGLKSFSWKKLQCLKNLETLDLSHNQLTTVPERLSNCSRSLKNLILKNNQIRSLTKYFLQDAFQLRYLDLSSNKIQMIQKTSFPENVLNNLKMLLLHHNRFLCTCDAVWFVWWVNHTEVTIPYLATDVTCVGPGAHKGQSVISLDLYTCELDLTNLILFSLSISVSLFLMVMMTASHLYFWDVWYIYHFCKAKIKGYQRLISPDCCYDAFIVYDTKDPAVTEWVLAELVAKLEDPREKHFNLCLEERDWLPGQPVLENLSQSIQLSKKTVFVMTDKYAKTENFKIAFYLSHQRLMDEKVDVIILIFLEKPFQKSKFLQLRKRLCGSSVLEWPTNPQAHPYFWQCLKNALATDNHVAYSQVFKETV", "experiment": "HEK Cell Assay (TLR7/NFKb reporter, Steady-Glo luciferase readout)", "format": "cell-based", "conditions": "30 min compound preincubation, then R*48 agonist for 5 hours, read-out: Potency", "protocol": "Example 142: HEK Cell Assay\nInto 384 CulturePlates (Corning 3707) was placed 5000 c/w of TLR7/NFKb HEK cells in 30 uL DMEM without Phenil red (gibco #31053) and 10% i.a. FCS and 2 mM L-ZGLutamin. The cells were incubated for 24 h at 37° C., 10% carbon dioxide and 90% relative humidity. 3 uL of controls, standards, and compounds were dispensed into wells, incubated for 30 min then 3 uL of R*48 agonist in 20 mM Hepes was added. After incubation for 5 hours, they were allowed to stand at room temperature for 15 min. To this was added 10 uL of Steady-Glo substrate reagent and shake assay plate for 5 min at 1500 rpm. The assay plate was allowed to sit for 30 min at room temperature and then the plate was read on EnVision.", "units": {"IC50": "nM"}}
{"smiles": "C[C@H]1C[C@@H](NC(=O)CC(C)(C)C)CN(c2c(F)cc(C#N)c3nccnc23)C1", "note": "[Compound 343, N-[(3R,5S)-1-(8-cyano-6-fluoroquinoxalin-5-yl)-5-methylpiperidin-3-yl]-3,3-dimethylbutanamide]", "IC50": "1000 to 10000"}
{"smiles": "C[C@@H]1CN(c2ncc(F)c3nccnc23)C[C@H](C)O1", "note": "[Compound 455, cis-5-(2,6-Dimethyl-morpholin-4-yl)-8-fluoro-pyrido[3,4-b]pyrazine]", "IC50": "> 10000"}
{"smiles": "Cc1ccc(N2C[C@@H](C)C[C@@H](N)C2)c2cccnc12", "note": "[Compound 462, (3R,5S)-5-Methyl-1-(8-methyl-quinolin-5-yl)-piperidin-3-ylamine hydrochloride]", "IC50": "< 1000"}
{"smiles": "C[C@H]1C[C@@H](NC(=O)CC2CCCN(C)C2)CN(c2ccc(C(F)(F)F)c3nccnc23)C1", "note": "(stereo partly drawn) [Compound 293, N-[(3R,5S)-5-methyl-1-[8-(trifluoromethyl)quinoxalin-5-yl]piperidin-3-yl]-2-(1-methylpiperidin-3-yl)acetamide]", "IC50": "< 1000"}
{"smiles": "CN1CCC(NC(=O)C2CN(c3ccc(C#N)c4nccnc34)CC(F)(F)C2)CC1", "note": "(centres unmarked) [Compound 529, 1-(8-Cyano-quinoxalin-5-yl)-5,5-difluoro-piperidine-3-carboxylic acid (1-methyl-piperidin-4-yl)-amide]", "IC50": "< 1000"}
{"smiles": "C[C@H]1C[C@@H](N)CN(c2ccc(C#N)c3ncncc23)C1", "note": "[Compound 74, 5-((3R,5S)-3-Amino-5-methyl-piperidin-1-yl)-quinazoline-8-carbonitrile]", "IC50": "< 1000"}
{"smiles": "C[C@H]1C[C@@H](NC(=O)NC2CC2)CN(c2ccc(C(F)(F)F)c3ncccc23)C1", "note": "[Compound 518, 1-Cyclopropyl-3-[(3R,5S)-5-methyl-1-(8-trifluoromethyl-quinolin-5-yl)-piperidin-3-yl]-urea]", "IC50": "< 1000"}
{"smiles": "N#Cc1ccc(N2C[C@@H](N)C[C@@H](C(F)(F)F)C2)c2cccnc12", "note": "(relative stereo) [Compound 71, cis-5-(3-Amino-5-trifluoromethyl-piperidin-1-yl)-quinoline-8-carbonitrile]", "IC50": "< 1000"}
{"smiles": "CCN1CCC[C@H]1C(=O)NC1CC(C(F)(F)F)CN(c2ccc(C#N)c3ncccc23)C1", "note": "(single isomer, unassigned) [Compound 437]", "IC50": "1000 to 10000"}
{"smiles": "CN1CCN(CC(=O)NC2CN(c3ccc(C(F)(F)F)c4ncccc34)CC(F)(F)C2)CC1", "note": "(centres unmarked) [Compound 511, N-[5,5-Difluoro-1-(8-trifluoromethyl-quinolin-5-yl)-piperidin-3-yl]-2-(4-methyl-piperazin-1-yl)-acetamide]", "IC50": "< 1000"}
{"smiles": "COc1ccc(N2C[C@@H](C)C[C@@H](NC(=O)CC(C)(C)C)C2)c2nccnc12", "note": "[Compound 202, N-[(3R,5S)-1-(8-methoxyquinoxalin-5-yl)-5-methylpiperidin-3-yl]-3,3-dimethylbutanamide]", "IC50": "1000 to 10000"}
{"smiles": "Cn1ncc2c(N3CCC(C(=O)NCCN4CCCCC4)CC3)ncnc21", "note": "[Compound 3, 1-(1-methyl-1H-pyrazolo[3,4-d]pyrimidin-4-yl)-N-(2-(piperidin-1-yl)ethyl)piperidine-4-carboxamide]", "IC50": "1000 to 10000"}
{"smiles": "Cc1ncc(N2C[C@@H](C)C[C@@H](NC(=O)CC3CN(C)C3)C2)c2cccnc12", "note": "[Compound 556, 2-(1-Methyl-azetidin-3-yl)-N-[(3R,5S)-5-methyl-1-(8-methyl-[1,7]naphthyridin-5-yl)-piperidin-3-yl]-acetamide]", "IC50": "1000 to 10000"}
{"smiles": "CCC(C)CC(=O)N[C@@H]1C[C@H](C)CN(c2ccc(C#N)c3nccnc23)C1", "note": "(single isomer, unassigned) [Compound 150]", "IC50": "< 1000"}
{"smiles": "Cc1cc2c(N3C[C@@H](C)C[C@@H](NC(=O)CO)C3)ccnc2n1C", "note": "[Compound 13, N-((3R,5S)-1-(1,2-dimethyl-1H-pyrrolo[2,3-b]pyridin-4-yl)-5-methylpiperidin-3-yl)-2-hydroxyacetamide]", "IC50": "> 10000"}
{"smiles": "CC(C)[C@H](O)C(=O)N[C@@H]1C[C@H](C)CN(c2ccnc3nccnc23)C1", "note": "[Compound 22, (S)-2-hydroxy-3-methyl-N-((3R,5S)-5-methyl-1-(pyrido[2,3-b]pyrazin-8-yl)piperidin-3-yl)butanamide]", "IC50": "1000 to 10000"}
{"smiles": "O=C(NCCN1CCCCC1)C1CCN(c2ccc(C(F)(F)F)c3ncccc23)CC1", "note": "[Compound 441, 1-(8-Trifluoromethyl-quinolin-5-yl)-piperidine-4-carboxylic Acid (2-piperidin-1-yl-ethyl)-amide]", "IC50": "< 1000"}
{"smiles": "COc1ccc(N2C[C@@H](C)C[C@@H](NC(=O)[C@@H](O)C(C)C)C2)c2cccnc12", "note": "[Compound 188, (2S)-2-hydroxy-N-[(3R,5S)-1-(8-methoxyquinolin-5-yl)-5-methylpiperidin-3-yl]-3-methylbutanamide]", "IC50": "< 1000"}
{"smiles": "C[C@H]1C[C@@H](NC(=O)Cc2cn(C)cn2)CN(c2ccnc3nccnc23)C1", "note": "[Compound 133, N-[(3R,5S)-5-methyl-1-[pyrido[2,3-b]pyrazin-8-yl]piperidin-3-yl]-2-(1-methyl-1H-imidazol-4-yl)acetamide]", "IC50": "> 10000"}
{"smiles": "COC(C)C(=O)N[C@@H]1C[C@H](C)CN(c2ccc(C#N)c3nccnc23)C1", "note": "(single isomer, unassigned) [Compound 158]", "IC50": "1000 to 10000"}
{"smiles": "C[C@@H]1CN(c2ccc(C#N)c3nccnc23)C[C@H](CN2CCC(N3CCOCC3)CC2)O1", "note": "[Compound 467, 8-[(2R,6S)-2-methyl-6-{[4-(morpholin-4-yl)piperidin-1-yl]methyl}morpholin-4-yl]quinoxaline-5-carbonitrile]", "IC50": "< 1000"}
{"smiles": "C[C@H]1C[C@@H](NC(=O)CC(O)C(C)(C)C)CN(c2ccc(C#N)c3nccnc23)C1", "note": "(single isomer, unassigned) [Compound 146]", "IC50": "< 1000"}
{"smiles": "N#Cc1ccc(N2CC(NC3CCC(O)CC3)CC(C(F)(F)F)C2)c2nccnc12", "note": "(single isomer, unassigned) [Compound 91, cis,cis-8-(3-((4-hydroxycyclohexyl)amino)-5-(trifluoromethyl)piperidin-1-yl)quinoxaline-5-carbonitrile]", "IC50": "< 1000"}
{"smiles": "C[C@H]1C[C@@H](N)CN(c2ccc(O)c3ncccc23)C1", "note": "[Compound 200, 5-[(3R,5S)-3-amino-5-methylpiperidin-1-yl]quinolin-8-ol hydrochloride]", "IC50": "< 1000"}
{"smiles": "C[C@@H]1CN(c2ccc(C#N)c3nccnc23)C[C@H](C)O1", "note": "[Compound 44, 8-((2R,6S)-2,6-dimethylmorpholino)quinoxaline-5-carbonitrile]", "IC50": "< 1000"}
{"smiles": "CN1CCC(CNC(=O)C2CN(c3ccc(C#N)c4ncccc34)CC(F)(F)C2)CC1", "note": "(centres unmarked) [Compound 531, 1-(8-Cyano-quinolin-5-yl)-5,5-difluoro-piperidine-3-carboxylic Acid (1-methyl-piperidin-4-ylmethyl)-amide]", "IC50": "< 1000"}
{"smiles": "COc1cccc(NCC(=O)NCC2CCN(c3ccnc4nccnc34)CC2)c1", "note": "[Compound 404, 2-(3-Methoxy-phenylamino)-N-(1-pyrido[2,3-b]pyrazin-8-yl-piperidin-4-ylmethyl)-acetamide]", "IC50": "> 10000"}
{"smiles": "C[C@H]1C[C@@H](NC(=O)Cc2c[nH]cn2)CN(c2ccnc3nccnc23)C1", "note": "[Compound 131, 2-(1H-imidazol-4-yl)-N-[(3R,5S)-5-methyl-1-[pyrido[2,3-b]pyrazin-8-yl]piperidin-3-yl]acetamide]", "IC50": "> 10000"}
{"smiles": "CCN1CCC[C@H]1C(=O)NC1CC(C(F)(F)F)CN(c2ccc(C#N)c3ncccc23)C1", "note": "(single isomer, unassigned) [Compound 438]", "IC50": "1000 to 10000"}
